Assay results: patent US9493485B2, “Spirocyclic dihydro-thiazine and dihydro-oxazine BACE inhibitors, and compositions and uses thereof” (Imago Pharmaceuticals, Inc., priority 2012, dated 2016)
Where two headings read alike, the source gives them in different places.

Experiments:
Cathepsin D = Cathepsin D (Homo sapiens (Human), UniProt P07339); assay: Cathepsin D FP assay; type: biochemical; details: pH 4.5, read-out: CatD FP IC50
Procedure: (§1) BACE1 activity can be assessed in an AlphaScreen® assay. Compounds to be assessed (e.g. compounds as described in the above examples) are serially diluted 1:4 in DMSO, then plated by diluting 10 μL of compound with 40 μl of assay buffer (1×PBS, 0.01% Tween-20, pH 7.0, 0.05% BSA). The diluted compound is transferred (4 μL per well) to a 386 well assay plate and 4 μL of BACE1 enzyme ([…]) is added and incubated for 15 minutes. This assay uses a probe that is a BACE1 binding sight ligand linked to biotin, which can be displaced by test compound dependent on compound binding affinity. This of biotinylated probe (4 μL) is added and incubated for 1 hour, followed with 4 μL of donor and acceptor bead mixture and incubated for 2 hours. The fluorescent signal is read on a plate reader and the value as a function of compound concentration is used to determine the IC50. Compounds are also assessed for BACE1 and Cathepsin D activity using an FP Assay. Compounds to be assessed (e.g. compounds as described in the above examples) are serially diluted 1:3 with DMSO and each concentration point is transferred to a 96 well plate, 6 μL per well, followed by addition of 194 μL of assay buffer (100 mM sodium acetate, pH 4.5 with 0.001% Tween-20). A 10 μL compound sample from this plate is transferred to a well of a 384 well plate and combined with 10 μL per well of BACE1 enzyme (0.3 nM in assay buffer) or Cathepsin D enzyme (1.8 nM in assay buffer) and the plate is incubated at room temperature for 30 minutes.

[1] = test system: BACE1 inhibition in HEKp293 cells transfected with APP751 gene (SWE293); assay: SWE293 cellular assay: reduction of Aβ peptide production, ELISA; type: cell-based; details: Homo sapiens, read-out: SWE293 ED50
Procedure: BACE1 inhibition is also assessed in a cellular assay. HEKp293 cells transfected with APP751 gene (SWE293, American Type Culture Collection CRL-1563) are used to assess compounds for reduction in levels of Aβ peptide production. SWE293 cell medium is DMEM supplemented with 10% fetal bovine serum and 2 mM L-glutamine, 1.0 mM sodium pyruvate, 25 mM Hepes Buffer, 0.4 mg/mL geneticin (G418, Gibco BRL 860-181IIJ). Cells are maintained diluting 1:10 for 4 days in T-150 flask and 35 mL of cell media. For plating, cells are rinsed with 5 mL of 1×PBS, trypsinized with 4 mL of 0.05% Tripsin for 1 minute, and 12 mL of cell media is added. These are centrifuged at 1000 rpm for 4 minutes and the media aspirated, then 8 mL of media per flask is added. Based on cell count, appropriate amounts of cell and cell media are combined, and 180 μl per well are plated (96 well) and the plates are incubated overnight at 37° C., 5% CO2. Compounds to be tested are serially diluted 1:3 in DMSO and twice in media (without G418) in V-bottom plates and incubated at room temperature. Plated cells are washed with media, 3×50 μL per well and 17 μL per well of appropriate dilution of compound is added. Plates are incubated for 2 hours, and the wash steps, compound addition and incubation are repeated. Sample is transferred to capture plate (prepared with 266 antibody, see e.g. Johnson-Wood et al., PNAS February 1997, 94: 1550-1555), along with a standard curve of Aβ-40. ELISA assay is used to assess Aβ levels, washing with TBS, 0.05% Tween20 pH 7.5, then adding 1.3 mg/mL 3D6 antibody 1:900 in specimen diluents with thimericol is added (100 μl per well) and incubated for 1 hour. Wash step is repeated and Streptavidin-AP diluted 1:1000 in specimen diluents with thimerisol is added (100 μL per well) and incubated for 1 hour. Wash step is repeated and fluorescent substrate is added, 100 μL per well and incubated for 10 minutes followed by reading the fluorescent signal on a plate reader.

BACE1 [2] = target: T1, BACE1 (Homo sapiens (Human), UniProt P56817); assay: BACE1 FP assay; type: biochemical; details: pH 4.5
T1 sequence (P56817 46-501): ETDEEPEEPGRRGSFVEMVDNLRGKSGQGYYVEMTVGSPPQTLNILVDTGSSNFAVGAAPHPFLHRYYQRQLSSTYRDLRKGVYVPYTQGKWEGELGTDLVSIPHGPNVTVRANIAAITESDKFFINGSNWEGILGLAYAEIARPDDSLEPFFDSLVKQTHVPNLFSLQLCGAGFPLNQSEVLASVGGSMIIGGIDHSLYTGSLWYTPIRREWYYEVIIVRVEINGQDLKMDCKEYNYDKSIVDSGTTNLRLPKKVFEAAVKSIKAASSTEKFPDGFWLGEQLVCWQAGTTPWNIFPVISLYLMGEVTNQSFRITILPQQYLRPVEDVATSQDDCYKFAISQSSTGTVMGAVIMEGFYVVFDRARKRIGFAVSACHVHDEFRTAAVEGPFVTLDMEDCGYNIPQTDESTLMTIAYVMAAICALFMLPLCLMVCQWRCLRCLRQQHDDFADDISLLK
Procedure: as §1

BACE1 [3] = target: T1, BACE1; assay: BACE1 AlphaScreen assay (displacement of biotinylated BACE1 binding site probe); details: read-out: BACE1 AS IC50
Procedure: as §1

[4] = dose at which Aβ level is reduced by 50%, HEKp293 SWE293 cells

Chain of Cathepsin D (P07339 65-412, species assumed): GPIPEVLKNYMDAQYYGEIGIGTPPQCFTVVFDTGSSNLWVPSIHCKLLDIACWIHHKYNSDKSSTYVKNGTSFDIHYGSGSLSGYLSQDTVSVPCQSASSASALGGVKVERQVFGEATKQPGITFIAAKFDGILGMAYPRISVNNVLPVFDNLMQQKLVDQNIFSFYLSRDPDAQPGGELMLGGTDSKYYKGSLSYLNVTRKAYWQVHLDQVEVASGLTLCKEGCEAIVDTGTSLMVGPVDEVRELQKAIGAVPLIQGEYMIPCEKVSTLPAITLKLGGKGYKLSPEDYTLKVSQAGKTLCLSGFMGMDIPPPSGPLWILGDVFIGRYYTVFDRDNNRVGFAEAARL

C[C@@]1(c2cc(NC(=O)c3ncc(Cl)cc3F)ccc2F)CC2(CCC(F)(F)CC2)OC(N)=N1 [Compound 9-133, (S)—N-(3-(2-amino-9,9-difluoro-4-methyl-1-oxa-3-azaspiro[5.5]undec-2-en-4-yl)-4-fluorophenyl)-5-chloro-3-fluoropicolinamide]
IC50 (Cathepsin D): > 30000 nM
IC50 [1, 4]: 16 nM
IC50 (BACE1 [2]): 16 nM
IC50 (BACE1 [3]): 9 nM

COc1cnc(C(=O)Nc2ccc(F)c([C@]3(C)CC4(CCC4)OC(N)=N3)c2)cn1 [Compound 9-135, (S)—N-(3-(6-amino-8-methyl-5-oxa-7-azaspiro[3.5]non-6-en-8-yl)-4-fluorophenyl)-5-methoxypyrazine-2-carboxamide]
IC50 (Cathepsin D): > 30000 nM
IC50 [1, 4]: 27 nM
IC50 (BACE1 [2]): 281 nM
IC50 (BACE1 [3]): 10.5 nM

C[C@@]1(c2cc(NC(=O)c3ccc(Br)cn3)ccc2F)CC2(CCC(F)(F)CC2)OC(N)=N1 [Compound 9-136, (S)—N-(3-(2-amino-9,9-difluoro-4-methyl-1-oxa-3-azaspiro[5.5]undec-2-en-4-yl)-4-fluorophenyl)-5-bromopicolinamide]
IC50 (Cathepsin D): > 30000 nM
IC50 [1]: 8.9 nM
IC50 (BACE1 [2]): 50 nM
IC50 (BACE1 [3]): 7 nM

Cc1nc(C(=O)Nc2ccc(F)c([C@]3(C)CC4(CCC4)OC(N)=N3)c2)co1 [Compound 9-138, (S)—N-(3-(6-amino-8-methyl-5-oxa-7-azaspiro[3.5]non-6-en-8-yl)-4-fluorophenyl)-2-methyloxazole-4-carboxamide]
IC50 (Cathepsin D): > 30000 nM
IC50 [1, 4]: 23 nM
IC50 (BACE1 [2]): 299 nM
IC50 (BACE1 [3]): 11 nM

CC1(c2cc(NC(=O)c3ccc(C#N)cn3)ccc2F)CC2(CCOCC2)OC(N)=N1 (stereo not shown) [Compound 9-139, N-(3-(2-amino-4-methyl-1,9-dioxa-3-azaspiro[5.5]undec-2-en-4-yl)-4-fluorophenyl)-5-cyanopicolinamide]
IC50 (Cathepsin D): > 30000 nM
IC50 [1, 4]: 5 nM
IC50 (BACE1 [2]): 48 nM
IC50 (BACE1 [3]): 9 nM

C[C@@]1(c2cc(NC(=O)c3ccc(Cl)cc3)ccc2F)CC2(CCC2)OC(N)=N1 [Compound 9-141, (S)—N-(3-(6-amino-8-methyl-5-oxa-7-azaspiro[3.5]non-6-en-8-yl)-4-fluorophenyl)-4-chlorobenzamide]
IC50 (Cathepsin D): > 30000 nM
IC50 [1]: 109 nM
IC50 (BACE1 [2]): 839 nM
IC50 (BACE1 [3]): 17.5 nM

C[C@]1(c2cc(NC(=O)c3ccc(F)cn3)ccc2F)CC2(CCC2)SC(N)=N1 [Compound 9-143, (R)—N-(3-(6-amino-8-methyl-5-thia-7-azaspiro[3.5]non-6-en-8-yl)-4-fluorophenyl)-5-fluoropicolinamide]
IC50 (Cathepsin D): > 30000 nM
IC50 [1, 4]: 6220 nM
IC50 (BACE1 [2]): 51800 nM
IC50 (BACE1 [3]): > 7500 nM

C[C@@]1(c2cc(NC(=O)c3ccc(F)cn3)ccc2F)CC2(CCC2)SC(N)=N1 [Compound 9-144, (S)—N-(3-(6-amino-8-methyl-5-thia-7-azaspiro[3.5]non-6-en-8-yl)-4-fluorophenyl)-5-fluoropicolinamide]
IC50 (Cathepsin D): > 30000 nM
IC50 [1, 4]: 9 nM
IC50 (BACE1 [2]): 27 nM
IC50 (BACE1 [3]): 8 nM

C[C@@]1(c2cc(NC(=O)c3ccc(Cl)cn3)ccc2F)CC2(CCC2)SC(N)=N1 [Compound 9-145, (S)—N-(3-(6-amino-8-methyl-5-thia-7-azaspiro[3.5]non-6-en-8-yl)-4-fluorophenyl)-5-chloropicolinamide]
IC50 (Cathepsin D): > 30000 nM
IC50 [1, 4]: 2 nM
IC50 (BACE1 [2]): 1.9 nM
IC50 (BACE1 [3]): 4.5 nM

C[C@@]1(c2cc(NC(=O)c3ccc(F)cn3)ccc2F)CC2(COC2)SC(N)=N1 [Compound 9-146, (S)—N-(3-(6-amino-8-methyl-2-oxa-5-thia-7-azaspiro[3.5]non-6-en-8-yl)-4-fluorophenyl)-5-fluoropicolinamide]
IC50 (Cathepsin D): > 30000 nM
IC50 [1, 4]: 22 nM
IC50 (BACE1 [2]): 119 nM
IC50 (BACE1 [3]): 9.8 nM

CC1(c2cc(NC(=O)c3ccc(F)cn3)ccc2F)CC2(CCOCC2)SC(N)=N1 (stereo not shown) [Compound 9-147, N-(3-(2-amino-4-methyl-9-oxa-1-thia-3-azaspiro[5.5]undec-2-en-4-yl)-4-fluorophenyl)-5-fluoropicolinamide]
IC50 (Cathepsin D): 15600 nM
IC50 [1, 4]: < 4 nM
IC50 (BACE1 [2]): 29 nM
IC50 (BACE1 [3]): 8 nM

C[C@@]1(c2cc(NC(=O)c3ccc(F)cn3)ccc2F)CC2(CCOCC2)SC(N)=N1 [Compound 9-148, (S)—N-(3-(2-amino-4-methyl-9-oxa-1-thia-3-azaspiro[5.5]undec-2-en-4-yl)-4-fluorophenyl)-5-fluoropicolinamide]
IC50 (Cathepsin D): > 30000 nM
IC50 [1, 4]: 1.4 nM
IC50 (BACE1 [2]): 29 nM
IC50 (BACE1 [3]): 6.8 nM

CC1(c2cc(NC(=O)c3ccc(Cl)cn3)ccc2F)CC2(CCOCC2)SC(N)=N1 (stereo not shown) [Compound 9-150, N-(3-(2-amino-4-methyl-9-oxa-1-thia-3-azaspiro[5.5]undec-2-en-4-yl)-4-fluorophenyl)-5-chloropicolinamide]
IC50 (Cathepsin D): 10600 nM
IC50 [1, 4]: < 4 nM
IC50 (BACE1 [2]): 4 nM
IC50 (BACE1 [3]): 9 nM

C[C@@]1(c2cc(NC(=O)c3ccc(Cl)cn3)ccc2F)CC2(CCOCC2)SC(N)=N1 [Compound 9-151, (S)—N-(3-(2-amino-4-methyl-9-oxa-1-thia-3-azaspiro[5.5]undec-2-en-4-yl)-4-fluorophenyl)-5-chloropicolinamide]
IC50 (Cathepsin D): > 30000 nM
IC50 [1, 4]: 0.4 nM
IC50 (BACE1 [2]): 5 nM
IC50 (BACE1 [3]): 9.7 nM

C[C@@]1(c2cc(NC(=O)c3ccc(Cl)cn3)ccc2F)CC2(CC2)OC(N)=N1 [Compound 9-154, (S)—N-(3-(5-amino-7-methyl-4-oxa-6-azaspiro[2.5]oct-5-en-7-yl)-4-fluorophenyl)-5-chloropicolinamide]
IC50 (Cathepsin D): > 30000 nM
IC50 [1, 4]: 20 nM
IC50 (BACE1 [2]): 113 nM
IC50 (BACE1 [3]): 7.5 nM

CC1(c2cc(NC(=O)c3ccc(F)cn3)ccc2F)N=C(N)OC2(CCOCC2)C1(F)F (stereo not shown) [Compound 9-155, N-(3-(2-amino-5,5-difluoro-4-methyl-1,9-dioxa-3-azaspiro[5.5]undec-2-en-4-yl)-4-fluorophenyl)-5-fluoropicolinamide]
IC50 (Cathepsin D): > 30000 nM
IC50 [1, 4]: 177 nM
IC50 (BACE1 [2]): 277 nM
IC50 (BACE1 [3]): 31 nM

C[C@]1(c2cc(NC(=O)c3ccc(F)cn3)ccc2F)N=C(N)OC2(CCOCC2)C1(F)F [Compound 9-157, (R)—N-(3-(2-amino-5,5-difluoro-4-methyl-1,9-dioxa-3-azaspiro[5.5]undec-2-en-4-yl)-4-fluorophenyl)-5-fluoropicolinamide]
IC50 (Cathepsin D): > 30000 nM
IC50 [1, 4]: 166 nM
IC50 (BACE1 [2]): 300 nM
IC50 (BACE1 [3]): 45 nM

CC1(c2cc(NC(=O)c3ccc(Cl)cn3)ccc2F)N=C(N)OC2(CCOCC2)C1(F)F (stereo not shown) [Compound 9-158, N-(3-(2-amino-5,5-difluoro-4-methyl-1,9-dioxa-3-azaspiro[5.5]undec-2-en-4-yl)-4-fluorophenyl)-5-chloropicolinamide]
IC50 (Cathepsin D): 19600 nM
IC50 [1, 4]: 182 nM
IC50 (BACE1 [2]): 94 nM
IC50 (BACE1 [3]): 15 nM

CC1(c2cc(NC(=O)c3ccc(F)cn3)ccc2F)N=C(N)OC2(CCC2)C1(F)F (stereo not shown) [Compound 9-159, N-(3-(6-amino-9,9-difluoro-8-methyl-5-oxa-7-azaspiro[3.5]non-6-en-8-yl)-4-fluorophenyl)-5-fluoropicolinamide]
IC50 (Cathepsin D): > 30000 nM
IC50 [1]: 225 nM
IC50 (BACE1 [2]): 210 nM
IC50 (BACE1 [3]): 40 nM
